# Results reported in the supplement of paper PMC10307832.
# Columns and labels:
# Assay in all cases: relative viability (nuclei count vs DMSO), 5 days (fraction); higher = more cells survive
# [1] = compound: C=CC(=O)Nc1cc(-n2c(=O)ccc3cnc4ccc(-c5ccc(NS(C)(=O)=O)cc5)cc4c32)ccc1C [BMX-IN-1] + C[C@]1(O)C[C@@H](c2nc(-c3ccc4ccc(-c5ccccc5)nc4c3)c3c(N)nccn32)C1 [Linsitinib] (partner 1 µM)
# How it was run: (§1)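 Relative viability equals treated-well nuclei counts divided by vehicle-well nuclei counts. Counts came from 4× images of lung cancer cell lines grown in 1536-well plates for 5 days after pin-tool dosing on the day after seeding. Dosing used one drug alone or a fixed anchor-drug dose plus five library-drug doses (not always all listed) in √10 steps, and values are medians of duplicate plates.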
# [2] = compound: C=CCc1cccc(/C=N/NC(=O)CN2CCN(Cc3ccccc3)CC2)c1O [PAC-1] + NC(=O)Nc1cc(-c2cccc(F)c2)sc1C(=O)N[C@H]1CCCNC1 [AZD7762] (partner 0.2 µM)
# How it was run: as §1
# [3] = compound: C=CCc1cccc(/C=N/NC(=O)CN2CCN(Cc3ccccc3)CC2)c1O [PAC-1] + CCNC(=O)c1noc(-c2cc(C(C)C)c(O)cc2O)c1-c1ccc(CN2CCOCC2)cc1 [Luminespib] (partner 0.01 µM)
# How it was run: as §1
# [4] = compound: C=CCc1cccc(/C=N/NC(=O)CN2CCN(Cc3ccccc3)CC2)c1O [PAC-1] + Nc1nc2[nH]cc(CCc3ccc(C(=O)N[C@@H](CCC(=O)O)C(=O)O)cc3)c2c(=O)[nH]1 [Pemetrexed] (partner 0.2 µM)
# How it was run: as §1
# [5] = compound: C=CCc1cccc(/C=N/NC(=O)CN2CCN(Cc3ccccc3)CC2)c1O [PAC-1] + COc1cccc2cc(-c3nc([C@H]4CC[C@H](C(=O)O)CC4)n4ncnc(N)c34)[nH]c12 [OSI-027] (partner 0.5 µM)
# How it was run: as §1
Cell Line,relative viability ([1]; first compound 0.02 µM),relative viability ([1]; first compound 0.2 µM),relative viability ([1]; first compound 0.6325 µM),relative viability ([1]; first compound 2 µM),relative viability ([2]; first compound 0.02 µM),relative viability ([2]; first compound 0.06325 µM),relative viability ([2]; first compound 0.2 µM),relative viability ([2]; first compound 2 µM),relative viability ([3]; first compound 0.02 µM),relative viability ([3]; first compound 0.06325 µM),relative viability ([3]; first compound 0.2 µM),relative viability ([3]; first compound 2 µM),relative viability ([4]; first compound 0.02 µM),relative viability ([4]; first compound 0.06325 µM),relative viability ([4]; first compound 0.2 µM),relative viability ([4]; first compound 2 µM),relative viability ([5]; first compound 0.02 µM),relative viability ([5]; first compound 0.06325 µM),relative viability ([5]; first compound 0.2 µM),relative viability ([5]; first compound 2 µM)
HOP-62,0.959,1,1.02,0.947,0.822,0.623,0.577,0.515,0.954,0.835,0.852,0.942,0.356,0.267,0.312,0.34,0.836,0.814,0.782,0.892
LC-2-ad,1.03,0.861,0.823,0.852,0.76,0.868,0.859,0.902,1.06,1.02,0.971,0.963,0.26,0.296,0.265,0.27,0.877,1.05,0.78,0.64
LCLC-97TM1,0.202,0.166,0.162,0.162,0.211,0.267,0.23,0.345,0.74,0.916,0.621,0.868,0.184,0.177,,0.191,0.436,0.536,0.453,0.449
LCLC-103H,1.12,1.06,1.09,1.14,0.833,0.764,0.713,0.757,1.06,0.932,0.981,0.911,0.468,0.419,0.436,0.451,0.45,0.467,0.436,0.559
LK-2,0.798,0.792,0.696,0.765,0.488,0.315,0.327,0.416,0.176,0.169,0.225,0.254,0.238,0.244,0.246,0.321,0.186,0.195,0.208,0.206
LOU-NH91,,0.976,0.993,0.919,0.742,0.761,0.768,0.71,0.312,0.271,0.352,0.322,0.368,0.365,0.379,0.39,0.643,0.68,0.727,0.715
LU99A,0.547,0.533,0.532,0.535,0.465,0.392,0.264,0.179,0.304,0.229,0.266,0.217,0.192,0.162,0.182,0.177,0.303,0.314,0.257,0.3
LXF-289,0.982,1.05,1.07,1.04,1.09,1.11,0.987,1.08,0.683,0.731,0.758,0.756,0.857,0.859,0.873,0.916,0.764,0.835,0.739,0.789
